Test results as given in the CheMixHub viscosity set.

Assay: xn = mol fraction of the nth substance listed

COC(=O)c1ccccc1 + CC#N
viscosity [mPa·s], 101.33 kPa
Conditions	x1 = 0.134	x1 = 0.255	x1 = 0.373	x1 = 0.48	x1 = 0.57	x1 = 0.666	x1 = 0.752	x1 = 0.837	x1 = 0.922
293.15 K	0.444	0.476	0.515	0.624	0.676	0.805	0.958	1.128	1.508
303.15 K	0.4	0.43	0.46	0.551	0.595	0.695	0.814	0.95	1.226
313.15 K	0.365	0.387	0.41	0.5	0.521	0.608	0.701	0.811	1.016
323.15 K	0.329	0.351	0.367	0.446	0.467	0.531	0.602	0.691	0.854

c1ccc2c(c1)CCCC2 + CCCCCCCCO
viscosity [mPa·s], 100 kPa
Conditions	x1 = 0.0993	x1 = 0.1995	x1 = 0.2994	x1 = 0.3997	x1 = 0.4996	x1 = 0.5996	x1 = 0.6996	x1 = 0.7994	x1 = 0.8994
293.15 K	7.58	6.37	5.34	4.49	3.8	3.25	2.83	2.53	2.31
298.15 K	6.37	5.38	4.55	3.86	3.3	2.85	2.51	2.25	2.09
303.15 K	5.39	4.59	3.92	3.35	2.89	2.52	2.22	2.01	1.88
308.15 K	4.61	3.95	3.39	2.92	2.54	2.23	1.99	1.81	1.7
313.15 K	3.95	3.42	2.97	2.58	2.26	2	1.79	1.64	1.55
318.15 K	3.42	2.99	2.61	2.29	2.02	1.8	1.63	1.51	1.43
323.15 K	2.96	2.61	2.3	2.03	1.81	1.62	1.48	1.37	1.32

CNC=O + CC(=O)O
viscosity [mPa·s], 100 kPa
Conditions	x1 = 0.1097	x1 = 0.183	x1 = 0.2628	x1 = 0.3502	x1 = 0.4802	x1 = 0.5897	x1 = 0.6693	x1 = 0.7549	x1 = 0.8961
303.15 K	1.044	1.086	1.132	1.183	1.259	1.324	1.372	1.426	1.517
308.15 K	0.9723	1.011	1.054	1.1	1.169	1.228	1.272	1.32	1.402
313.15 K	0.9175	0.9534	0.992	1.033	1.095	1.148	1.187	1.229	1.301
318.15 K	0.8728	0.9059	0.9409	0.978	1.033	1.08	1.114	1.151	1.213

CCOC(=O)CCl + Cc1cc(C)cc(C)c1
viscosity [mPa·s], 101.3 kPa
Conditions	x1 = 0.1123	x1 = 0.2035	x1 = 0.2999	x1 = 0.4019	x1 = 0.4987	x1 = 0.5997	x1 = 0.6963	x1 = 0.7974	x1 = 0.8954
298.15 K	0.693	0.712	0.745	0.775	0.811	0.853	0.902	0.964	1.023
303.15 K	0.653	0.669	0.698	0.725	0.759	0.798	0.841	0.899	0.949
308.15 K	0.612	0.627	0.652	0.677	0.708	0.741	0.779	0.829	0.874

CC(C)OCCO + CCCN
viscosity [mPa·s], 101.33 kPa
Conditions	298.15 K	308.15 K	318.15 K
x1 = 0.0207	0.381	0.347	0.305
x1 = 0.0475	0.413	0.372	0.328
x1 = 0.0745	0.451	0.398	0.35
x1 = 0.1534	0.575	0.493	0.425
x1 = 0.2413	0.732	0.615	0.517
x1 = 0.2917	0.841	0.702	0.578
x1 = 0.3559	0.992	0.808	0.662
x1 = 0.4223	1.147	0.935	0.746
x1 = 0.4366	1.183	0.966	0.767
x1 = 0.5416	1.445	1.145	0.905
x1 = 0.6413	1.681	1.319	1.032
x1 = 0.7365	1.875	1.464	1.142
x1 = 0.8564	2.047	1.577	1.252
x1 = 0.9246	2.077	1.617	1.283
x2 = 0.0101	2.099	1.645	1.309
